# Tests used:
# HCT116 cells = experiment: Cell colony forming assay (crystal violet); type: cell-based, human; conditions: 5 μM, 48 hours, vs wells treated without lomitapide
# Protocol: To examine relationship between lomitapide and cancer cell colony forming rate in HCT116 cells, cancer cell colony forming rates were measured after addition of limitapide to HCT116 cells cultured in wells.
# HCT116 cells were seeded at a density of 10^5 cells/well into 12-well plates and incubated 37° C. for 24 hours. Subsequently, the cells were incubated with 0 and 5 μM lomitapide at 37° C. for 48 hours in a 5% CO2 atmosphere. Then, 500 μL of crystal violet was added to each well and incubated at room temperature for 10 minutes to stain the cells. From the staining data, the cells were analyzed for growth rate.
# p-S6K, p-S6, LC3 = experiment: Cell signaling assay, western blot, MDA-MB-468; type: cell-based, human; conditions: 0, 5, and 10 μM, FIG. 7d
# Protocol: Cells treated with various concentrations (0, 5, and 10 μM) of lomitapide were lysed with RIPA buffer containing a protease-inhibitor cocktail. The whole-cell lysate was incubated on ice for 30 minutes. After centrifugation at 4° C. and 13,300×g for 15 minutes, the supernatant was collected. For use as controls, HCT116, SW480, HT29, MDA-MB-231, and MDA-MB-468 cells were treated with 1 μM of torin, known as an mTOR inhibitor.
# For western blot analysis, the supernatant was loaded onto 10% SDS-PAGE gel. The separated proteins were blotted onto a PVDF membrane. Then, the blots were incubated with antibodies at 4° C. for 12 hours as follows (Table 2).
# Then, the blots were washed with TBST (a mixture of tris-buffered saline (TBS) and Tween 20), incubated with horseradish peroxidase-conjugated secondary antibody (Cell signaling) at 37° C. for 1 hour, and washed, followed by detecting enhanced chemiluminescence (ECL; Amersham).
# [1] = system: immunocytes (CD4+, CD4+/CD44+, CD8+, CD8+/IFNη, Foxp3, NK, and NK/IFNγ); experiment: Immunocyte analysis in MC38 homograft model; type: in vivo, mouse; conditions: lomitapide alone
# Protocol: For mouse homograft tumor model, experiments were conducted using female C57B6/N mice (wild-type, 6 weeks old) with MC38 colorectal cancer and B16F10 melanoma cell lines. MC38 colorectal cancer and B16F10 melanoma cell lines were each subcutaneously injected at a dose of 2×10^5 cells. Lomitapide used in the two models was formulated with 45% saline, 40% PEG300, 5% Tween-80, and 10% DMSO.
# From 10 days after the DMC38 colorectal cancer cells injection, lomitapide was intraperitoneally injected five times at a dose of 20 mg/kg, and anti-PD-1 mAb (clone RMP1-14, BioXCell, West Lebanon, NH, USA) or rat IgG2a iso-type control (clone 2A3, BioXCell, BE0089) in PBS was administered at a dose of 10 mg/kg at days 1, 4, 7, and 10 (FIGS. 18a and 18b).
# In addition, MC38 colorectal cancer cells were analyzed for immunocytes (CD4+, CD4+/CD44+, CD8+, CD8+/IFNη, Foxp3, NK, and NK/IFNγ).
# A2780 = experiment: Cell viability, CellTiterGlo, 72 hours; type: cell-based; conditions: Homo sapiens, A2780 cells, Ovary
# Protocol: (§1) In addition to the colorectal cells, 120 cancer cell lines treated with various concentrations of lomitapide were assayed for viability. To analyze cell viability, the cells were incubated with lomitapide at 37° C. for 72 hours in a 5% or 10% CO2 atmosphere and then equilibrated at room temperature for 1 hour, followed by addition of CellTiterGlo reagent (Promega). One hour later, luminescence was measured to calculate cell viability (%). The 120 cell lines were purchased from ATCC (American Type Culture Collection, Virginia, USA).
# U251MG = experiment: Cell viability, CellTiterGlo, 72 hours; type: cell-based; conditions: Homo sapiens, U-251, U251MG cells, Brain
# Protocol: as §1
# K562 = experiment: Cell viability, CellTiterGlo, 72 hours; type: cell-based; conditions: Homo sapiens, K562 cells, Blood
# Protocol: as §1
# MDA MB 231 = experiment: Cell viability, CellTiterGlo, 72 hours; type: cell-based; conditions: Homo sapiens, MDA MB 231 cells, Breast
# Protocol: as §1
# NCI-H441 = experiment: Cell viability, CellTiterGlo, 72 hours; type: cell-based; conditions: Homo sapiens, NCI-H441 cells, Lung
# Protocol: as §1
# RL95-2 = experiment: Cell viability, CellTiterGlo, 72 hours; type: cell-based; conditions: Homo sapiens, RL95-2 cells, Endometrium
# Protocol: as §1
# HCC827 = experiment: Cell viability, CellTiterGlo, 72 hours; type: cell-based; conditions: Homo sapiens, HCC827 cells, Lung
# Protocol: as §1
# PANC-1 = experiment: Cell viability, CellTiterGlo, 72 hours; type: cell-based; conditions: Homo sapiens, PANC-1 cells, Pancreas
# Protocol: as §1
# NCI-H838 = experiment: Cell viability, CellTiterGlo, 72 hours; type: cell-based; conditions: Homo sapiens, NCI-H838 cells, Lung
# Protocol: as §1
# Mia PaCA 2 = experiment: Cell viability, CellTiterGlo, 72 hours; type: cell-based; conditions: Homo sapiens, Mia PaCA 2 cells, Pancreas
# Protocol: as §1
# H2228 = experiment: Cell viability, CellTiterGlo, 72 hours; type: cell-based; conditions: Homo sapiens, NCI-H2228, H2228 cells, Lung
# Protocol: as §1
# LOVO = experiment: Cell viability, CellTiterGlo, 72 hours; type: cell-based; conditions: Homo sapiens, LOVO cells, Colon
# Protocol: as §1
# NCI-H82 = experiment: Cell viability, CellTiterGlo, 72 hours; type: cell-based; conditions: Homo sapiens, NCI-H82 cells, Lung
# Protocol: as §1
# LOU-NH91 = experiment: Cell viability, CellTiterGlo, 72 hours; type: cell-based; conditions: LOU-NH91 cells, Lung
# Protocol: as §1
# HCC 1569 = experiment: Cell viability, CellTiterGlo, 72 hours; type: cell-based; conditions: Homo sapiens, HCC1569, HCC 1569 cells, Breast
# Protocol: as §1
# OPM-2 = experiment: Cell viability, CellTiterGlo, 72 hours; type: cell-based; conditions: Homo sapiens, OPM-2 cells, Blood
# Protocol: as §1
# DLD-1 = experiment: Cell viability, CellTiterGlo, 72 hours; type: cell-based; conditions: Homo sapiens, DLD-1 cells, Colon
# Protocol: as §1
# EFO-27 = experiment: Cell viability, CellTiterGlo, 72 hours; type: cell-based; conditions: Homo sapiens, EFO-27 cells, Ovary
# Protocol: as §1
# MOLM-13 = experiment: Cell viability, CellTiterGlo, 72 hours; type: cell-based; conditions: Homo sapiens, MOLM-13 cells, Blood
# Protocol: as §1
# MV4-11 = experiment: Cell viability, CellTiterGlo, 72 hours; type: cell-based; conditions: Homo sapiens, MV4-11 cells, Blood
# Protocol: as §1
smiles,measurement,setting,value
"O=C(NC1CCN(CCCCC2(C(=O)NCC(F)(F)F)c3ccccc3-c3ccccc32)CC1)c1ccccc1-c1ccc(C(F)(F)F)cc1 [lomitapide, N-(2,2,2-trifluoroethyl)-9-[4-[4-[[[4′-(trifluoromethyl)[1,1′-biphenyl]2-yl]carbonyl]amino]-1-piperidinyl]butyl]-9H-fluoren-9-carboxamide]",growth rate (colony forming),HCT116 cells,remarkably lower in growth rate
same,conversion from LC3I into LC3II,"p-S6K, p-S6, LC3",increased induction of conversion from LC3I into LC3II
same,phosphorylation levels of target proteins (p-S6K and p-S6),"p-S6K, p-S6, LC3",remarkably decreased phosphorylation levels
same,level of CD4+ immunocytes vs group treated with anti-PD-1 mAb alone,[1],superior
same,level of CD4+/CD44+ immunocytes vs group treated with anti-PD-1 mAb alone,[1],similar
same,level of CD8+ immunocytes vs group treated with anti-PD-1 mAb alone,[1],similar
same,level of CD8+/IFNη immunocytes vs group treated with anti-PD-1 mAb alone,[1],similar
same,level of Foxp3 immunocytes vs group treated with anti-PD-1 mAb alone,[1],similar
same,level of NK immunocytes vs group treated with anti-PD-1 mAb alone,[1],superior
same,level of NK/IFNγ immunocytes vs group treated with anti-PD-1 mAb alone,[1],superior
same,IC50,A2780,2.7 µM
same,IC50,U251MG,5.4 µM
same,IC50,K562,2.1 µM
same,IC50,MDA MB 231,3.2 µM
same,IC50,NCI-H441,3.2 µM
same,IC50,RL95-2,3.2 µM
same,IC50,HCC827,4.1 µM
same,IC50,PANC-1,4.5 µM
same,IC50,NCI-H838,3.8 µM
same,IC50,Mia PaCA 2,2.9 µM
same,IC50,H2228,5.3 µM
same,IC50,LOVO,3.4 µM
same,IC50,NCI-H82,3.2 µM
same,IC50,LOU-NH91,5.7 µM
same,IC50,HCC 1569,2.9 µM
same,IC50,OPM-2,4.4 µM
same,IC50,DLD-1,4.5 µM
same,IC50,EFO-27,4 µM
same,IC50,MOLM-13,6.3 µM
same,IC50,MV4-11,6.2 µM

# — patent US12582638B2, “Pharmaceutical composition for treating cancer, containing mTOR-signaling inhibitor as active ingredient” (KOREA ADVANCED INSTITUTE OF SCIENCE AND TECHNOLOGY, priority 2020, dated 2026)
